The test system of test [1] is ethanol-induced gastric ulcer model in mice. Kind of test: Anti-ulcer effect on ethanol-induced gastric ulcer model in mice. Type of test: in vivo. The conditions noted are these: single administration; ulcer inhibition rate of test compound / ulcer inhibition rate of Compound 1. The procedure:
Experimental animals: Six-week old C57BL/6JGPt male mice, weighing about 20 g/mouse, were selected, with 10 mice in each group, from GemPharmatech (Chengdu) Co., Ltd., animal license number: SCXK (Chuan) 2020-034. After the experimental animals were divided into groups, they were dosed according to Table 5 one day before the experiment. Among the groups, the model group was given 200 μl of pure water, and the other dose groups were given 200 μl of drug solution. After that, all the animals were fasted for 24 h with free access to water. The next day, 1 h after administration, the mice in each group were given 9 μl/g of absolute ethanol by oral gavage for modeling. After 1 h, the animals were sacrificed by cervical dislocation, the gastric cardia was ligated, the pylorus was occluded, and the whole stomach was removed. 1 mL of 1% formaldehyde solution was injected into the gastric lumen via the glandular stomach, the cardia was ligated, and the stomach was taken out and immediately immersed in 1% formaldehyde solution. After soaking for 30 min, the stomach tissue was taken out and cut open along the greater curvature. The content of the stomach was rinsed off with normal saline, the injury of the gastric mucosa in the mice were observed and measured after being laid flat, and the ulcer index and ulcer inhibition rate were calculated; panoramic photos of the stomach were taken; and finally, the gastric tissue sample was immersed in formalin and fixed. Calculation method for ulcer index: If the length of cord-like injury was greater than 1 mm, the length thereof was measured, with 1 point per millimeter; if the width thereof was greater than 1 mm, the score thereof was doubled according to the number of millimeters of the width; and if the length was less than 1 mm, a score of 0.5 was given, and the scores were added up to obtain the ulcer index of the animal. Method of data statistics: the ulcer index was expressed as mean±standard deviation; the ulcer inhibition rate was calculated by using the median value and mean value of the ulcer index in each dosage group and simulation group; and the data were statistically analyzed by means of Excel, and the difference data of the gastric ulcer index were statistically analyzed by means of independent sample T test.

Another test relates to HaCaT cells. Kind of test: Proliferation of HaCaT cells (CCK8). The conditions noted are these: 0.2-0.8 μg/mL; 24 h, 48 h and 72 h; 1% serum. Type of test: cell-based, human. On the procedure:
Experimental method: Immortalized human keratinocytes (HaCaT cells) was adjusted to a concentration of 1.0×10^5 to 5.0×10^5/mL for passaging, and they were cultured at 37° C. and 5% CO2 for 24-36 h for biological activity detection. The cells were digested with 0.25% trypsin for 5 min, 1640 whole blood culture medium, the volume of which was not less than 1 time of the volume of the trypsin, was added to stop digestion, a cell suspension was collected, centrifuged at 1000 RPM for 3 min, the supernatant was discarded, 2 mL of 1640 whole blood culture medium was added to suspend the cells, 20 μL of the cell suspension was taken and stained with AOPI, the concentration of cells in the suspension was then detected by a cell counter, the suspension was prepared to a concentration of 5×10^4/mL with 1640 culture medium containing serum at a concentration of 10% and inoculated into a 96-well cell culture plate, with 100 μL per well, i.e., 5000 cells/well, and the plate was cultured at 37° C. and 5% CO2 overnight.
After 24 h, the original culture medium was discarded, and 100 μL of polypeptide compound solutions with different concentrations prepared with 1640 culture medium containing serum at a concentration of 1% were added, such that the final concentrations of the polypeptide compounds to be tested were 0.2, 0.4 and 0.8 ug/mL, respectively. In addition, an EGF control group was prepared by adding 100 μL of a recombinant human epidermal growth factor (EGF) solution prepared with 1640 culture medium containing serum at a concentration of 1%, with the final concentration being 100 ng/ml. In the model control group, an equal volume of 1640 culture medium containing serum at a concentration of 1% was added. After culturing at 37° C. and 5% CO2 for 24 h, 48 h and 72 h, the proliferation of the HaCaT cell line was detected by means of CCK8 kit.

Where no end group is shown, it is not given here.

As to RKDVYEAEAKGKAE [Compound 59], the “Anti-ulcer activity (mean relative ulcer inhibition rate)” value in test [1] came to 0.48.

Consider PAAEPVPLEAEAKGKAE [Compound 55], for which the “Anti-ulcer activity (mean relative ulcer inhibition rate)” value in test [1] was found to be 0.20.

For the substance QASLEAEAKGKAE [Compound 2], the “Anti-ulcer activity (mean relative ulcer inhibition rate)” value in test [1] turned out to be 0.45.

Consider STQASLEAEAKGKAE [Compound 48], for which the “Anti-ulcer activity (mean relative ulcer inhibition rate)” value in test [1] worked out at 1.19.

Consider SMQASLEAEAK [Compound 5], for which, in test [1], the “Anti-ulcer activity (mean relative ulcer inhibition rate)” value turned out to be 0.84.

Consider SMQASLEAEAKGKAKQE [Compound 58], for which the “Anti-ulcer activity (mean relative ulcer inhibition rate)” value in test [1] was 0.52.

With SMQASLEAEAKGKAEA [Compound 52], the “Anti-ulcer activity (mean relative ulcer inhibition rate)” value in test [1] is 0.67.

Consider “Gly-Lys-Ala-Glu (GKAE; printed: Gly-Lys-Ala-Glu) [Compound 10]”, for which the “Anti-ulcer activity (mean relative ulcer inhibition rate)” value in test [1] is listed as 0.56.

SMEASLEAEAKGKAE [Compound 37]: in test [1], the “Anti-ulcer activity (mean relative ulcer inhibition rate)” value stood at 0.22.

With SMQASLDAEAKGKAE [Compound 38], the “Anti-ulcer activity (mean relative ulcer inhibition rate)” value in test [1] amounted to 1.38.

In the case of SVQASLEAEAKGKAE [Compound 12], in test [1], the “Anti-ulcer activity (mean relative ulcer inhibition rate)” value was 0.68.

For the substance SMQASLEAEAKGKAA [Compound 27], in test [1], the “Anti-ulcer activity (mean relative ulcer inhibition rate)” value is 0.51.

Turning to SMQASLLAEAKGKAE [Compound 33], the “Anti-ulcer activity (mean relative ulcer inhibition rate)” value in test [1] is 0.31.

Take SMQASLEAEAKGKAQD [Compound 49]: in test [1], the “Anti-ulcer activity (mean relative ulcer inhibition rate)” value was 0.48.

As to SMQASLEAEAKGKAQ [Compound 13], in test [1], the “Anti-ulcer activity (mean relative ulcer inhibition rate)” value is recorded as 1.02.

On to SMQASLEAEAKGK [Compound 3], for which the “Anti-ulcer activity (mean relative ulcer inhibition rate)” value in test [1] worked out at 0.33.

Consider SMQASLEAEAKPKAE [Compound 57], for which, in the test with HaCaT cells, the “effect on proliferation of HaCaT cells” value is “proliferation-promoting effect”. For the same substance, the “Anti-ulcer activity (mean relative ulcer inhibition rate)” value in test [1] amounted to 1.12.

Consider SMQASLEAEAKAKAE [Compound 56], for which the “Anti-ulcer activity (mean relative ulcer inhibition rate)” value in test [1] is reported as 0.91.

For SMQASLEAAAKGKAE [Compound 20], the “Anti-ulcer activity (mean relative ulcer inhibition rate)” value in test [1] turned out to be 0.56.

In the case of SMQASLEAEAKGKSE [Compound 60], the “Anti-ulcer activity (mean relative ulcer inhibition rate)” value in test [1] is on record as 1.03.

On to “Ser-Met (O)-Gln-Ala-Ser-Leu-Glu-Ala-Glu-Ala-Lys-Gly-Lys-Ala-Glu [Compound 11]”, for which, in test [1], the “Anti-ulcer activity (mean relative ulcer inhibition rate)” value is on record as 1.08.

In the case of SMQASLEAEAKGKAKQD [Compound 53], in the test with HaCaT cells, the “effect on proliferation of HaCaT cells” value is “proliferation-promoting effect”. The “Anti-ulcer activity (mean relative ulcer inhibition rate)” value in test [1] came out at 0.44.

In the case of SMQASLESEAKGKAE [Compound 43], in test [1], the “Anti-ulcer activity (mean relative ulcer inhibition rate)” value was 0.30.

On to SMQASVEAEAKGKAE [Compound 42], for which the “Anti-ulcer activity (mean relative ulcer inhibition rate)” value in test [1] turned out to be 0.84.

As for EAEAAGKAE [Compound 61], the “Anti-ulcer activity (mean relative ulcer inhibition rate)” value in test [1] is on record as 0.52.

Consider SMQASLAAEAKGKAE [Compound 19], for which, in test [1], the “Anti-ulcer activity (mean relative ulcer inhibition rate)” value is given as 0.64.

In the case of SMQASLEAESKGKAE [Compound 44], in test [1], the “Anti-ulcer activity (mean relative ulcer inhibition rate)” value is 0.16.

Consider SMAASLEAEAKGKAE [Compound 21], for which, in test [1], the “Anti-ulcer activity (mean relative ulcer inhibition rate)” value is reported as 0.87.

For the substance SMQASLQAQAKGKAE [Compound 14], the “Anti-ulcer activity (mean relative ulcer inhibition rate)” value in test [1] worked out at 0.49.

With Teprenone [reference compound], the “Anti-ulcer activity (mean relative ulcer inhibition rate)” value in test [1] worked out at 0.5.

Turning to SMQASLEAEAKGAAE [Compound 26], the “Anti-ulcer activity (mean relative ulcer inhibition rate)” value in test [1] is recorded as 0.56.

Take SAQASLEAEAKGKAE [Compound 16]: in test [1], the “Anti-ulcer activity (mean relative ulcer inhibition rate)” value is listed as 0.98.

With SMQASLEAEARGKAE [Compound 30], the “Anti-ulcer activity (mean relative ulcer inhibition rate)” value in test [1] was 0.33.

Regarding SMQATLEAEAKGKAE [Compound 41], the “Anti-ulcer activity (mean relative ulcer inhibition rate)” value in test [1] is 0.92.

Take SMQASLEAEAHGKAE [Compound 32]: in test [1], the “Anti-ulcer activity (mean relative ulcer inhibition rate)” value was determined as 0.52.

As for SMQASLQAEAKGKAE [Compound 35], the “Anti-ulcer activity (mean relative ulcer inhibition rate)” value in test [1] came to 0.57.

Take SMQASLEALAKGKAE [Compound 34]: in test [1], the “Anti-ulcer activity (mean relative ulcer inhibition rate)” value is given as 0.91.

On to AEPVPLEAEAKGKAE [Compound 54], for which the “Anti-ulcer activity (mean relative ulcer inhibition rate)” value in test [1] stood at 0.59.

Take EAEAKGK [Compound 46]: the “Anti-ulcer activity (mean relative ulcer inhibition rate)” value in test [1] turned out to be 0.47.

In the case of SMQASLEAEAKGHAE [Compound 31], the “Anti-ulcer activity (mean relative ulcer inhibition rate)” value in test [1] was determined as 0.50.

Take SMQASLEAEAKGKAEL [Compound 51]: the “Anti-ulcer activity (mean relative ulcer inhibition rate)” value in test [1] amounted to 0.62.

For the substance SMQASLEAEAKGKAN [Compound 24], the “Anti-ulcer activity (mean relative ulcer inhibition rate)” value in test [1] is reported as 0.62.

On to “Glu-Ala-Glu-Ala (EAEA; printed: Glu-Ala-Glu-Ala) [Compound 45]”, for which the “Anti-ulcer activity (mean relative ulcer inhibition rate)” value in test [1] was 0.50.

For the substance AMQASLEAEAKGKAE [Compound 29], the “Anti-ulcer activity (mean relative ulcer inhibition rate)” value in test [1] worked out at 1.00.

Turning to SMQASLEAEAKGKAQE [Compound 50], in test [1], the “Anti-ulcer activity (mean relative ulcer inhibition rate)” value is 0.09.

Turning to QASLEAEAKGK [Compound 4], in test [1], the “Anti-ulcer activity (mean relative ulcer inhibition rate)” value came to 0.82.

On to EAEAKGKAE [Compound 7], for which the “Anti-ulcer activity (mean relative ulcer inhibition rate)” value in test [1] stood at 1.69.

Regarding SMQASAEAEAKGKAE [Compound 15], the “Anti-ulcer activity (mean relative ulcer inhibition rate)” value in test [1] stood at 0.72.

Regarding SMQASLEAEAAGKAE [Compound 18], the “Anti-ulcer activity (mean relative ulcer inhibition rate)” value in test [1] is reported as 0.91.

As for SIQASLEAEAKGKAE [Compound 22], the “Anti-ulcer activity (mean relative ulcer inhibition rate)” value in test [1] was determined as 0.81.

Take SLQASLEAEAKGKAE [Compound 17]: the “Anti-ulcer activity (mean relative ulcer inhibition rate)” value in test [1] is reported as 0.74.

With SMQASLEAEAKGKAD [Compound 23], the “Anti-ulcer activity (mean relative ulcer inhibition rate)” value in test [1] turned out to be 0.70.

On to SMQASLEADAKGKAE [Compound 39], for which the “Anti-ulcer activity (mean relative ulcer inhibition rate)” value in test [1] was found to be 0.83.

For the substance SMQASLEAQAKGKAE [Compound 36], the “Anti-ulcer activity (mean relative ulcer inhibition rate)” value in test [1] is given as 0.07.

Consider TASTLEAEAKGKAE [Compound 47], for which the “Anti-ulcer activity (mean relative ulcer inhibition rate)” value in test [1] is on record as 0.61.

On to SMQASLEAEAKGRAE [Compound 25], for which the “Anti-ulcer activity (mean relative ulcer inhibition rate)” value in test [1] was 0.36.

For the substance SMQAALEAEAKGKAE [Compound 28], the “Anti-ulcer activity (mean relative ulcer inhibition rate)” value in test [1] came to 0.67.

Consider SMQASL [Compound 8], for which the “Anti-ulcer activity (mean relative ulcer inhibition rate)” value in test [1] was determined as 0.89.

Take “Gln-Ala-Ser-Leu (QASL; printed: Gln-Ala-Ser-Leu) [Compound 9]”: the “Anti-ulcer activity (mean relative ulcer inhibition rate)” value in test [1] is 0.59.

As for TMQASLEAEAKGKAE [Compound 40], the “Anti-ulcer activity (mean relative ulcer inhibition rate)” value in test [1] is reported as 0.18.

For the origin of these results see patent US20250263437A1, “POLYPEPTIDE FOR REPAIRING SKIN WOUND OR MUCOSAL INJURY, AND APPLICATION THEREOF” (Sichuan Gooddoctor Panxi Pharmaceutical Co., Ltd., priority 2021, published 2025).
